Patent US6979545B2, “Method for determining chemical reactivity” (Pharmacia & Upjohn Company, priority 2000, dated 2005)
Like-named read-outs stand apart in the source and are kept apart here.

What was measured:
[1] = fluorescein-5-maleimide (FM)/GSH competition fluorescence test; assay type: physicochemical; conditions: for level of fluorescence, visual observation of the cuvette: compared to a standard without the compound for screening; for electrophilic properties (conclusion): from FM/GSH fluorescence
Description: A small aliquot of fluroescein-5-maleimide (FM) in dimethyl sulfoxide (DMSO) is added to a fluorometric cuvette containing 2 ml of phosphate buffered saline at a pH of 7.40. A test compound for screening in DMSO is added to the cuvette, as is a small aliquot of GSH solution. The mixture is exposed to light at 490 nm and emission is observed through a 530 nm bandpass filter. The color of the resulting mixture is observed and the amount of fluorescence is measured.

[2] = GSH reactivity screen (mercury orange fluorescence, 96-well); assay type: physicochemical; conditions: for potential reactivity using the GSH reactivity screen: residual GSH by HgO fluorescence, electrophile criterion e.g. <20% GSH remaining
Description: The test compounds as listed in Table 2 to be screened are dissolved in dimethyl sulfoxide (DMSO) to a final concentration of 10 mM, and 2 μL is transferred to the wells of a polypropylene 96-well microtiter plate. […] Mercury orange (HgO) stock solution (470 μM) is prepared in acetone and stored at 4° C. […] A 48 μL aliquot of the GSH working solution is pipetted into the 96-well tray containing the test compounds to yield a final concentration of 200 μM GSH. The reaction of the test compound with the GSH is allowed to proceed for 1 h at room temperature after which time an aliquot of HgO is added to each reaction well to yield a final concentration of 50 μM GSH/HgO. […] Assay linearity is investigated by preparing a GSH standard curve in the concentration range 0 to 50 μM (final concentration). Routine sample analysis is achieved using a Biomek 2000 biorobotic system configured with six 96-well plates and 2 reagent reservoirs.
Compounds are then identified as elelctrophiles based upon a predetermined criteria of GSH consumption (e.g., <20% GSH remaining).

[3] = phosphate buffered saline pH 7.40, excitation 490 nm, emission 530 nm
[4] = test compound with 200 μM GSH, 1 h at room temperature, no metabolic activation, no glutathione transferase
[5] = test compound with 200 μM GSH, 1 h at room temperature

| SMILES | result in the GSH screen (in words) [2, 4] | further results |
| --- | --- | --- |
| O=C1C=CC(=O)N1c1cccc(C(F)(F)F)c1 | – | level of fluorescence, visual observation of the cuvette [1]: does not appreciably change; electrophilic properties (conclusion) [1]: not having electrophilic properties; reactivity of this compound toward GSH as compared to the FM standard [1, 3]: 2.95 times less |
| CC(=O)NC1=C(Cl)C(=O)c2ccccc2C1=O | – | level of fluorescence, visual observation of the cuvette [1]: appreciably reduced; electrophilic properties (conclusion) [1]: having electrophilic properties; reactivity of this compound toward GSH as compared to the FM standard (in words) [1, 3]: slightly greater |
| O=[N+]([O-])c1ccc(Cl)cc1 [1-Chloro-4-nitrobenzene] | – | result in the GSH screen (in words) [2]: non-reactive |
| O=[N+]([O-])c1ccc(Cl)c([N+](=O)[O-])c1 [1-chloro-2,4-dinitrobenzene] | non-reactive | – |
| N#Cc1ccc(Cl)cc1 [4-Chlorobenzonitrile] | – | result in the GSH screen (in words) [2]: non-reactive |
| O=[N+]([O-])c1cc(O)ccc1Cl [4-chloro-3-nitrophenol] | non-reactive | – |
| c1ccccc1 [Benzene] | non-reactive | – |
| COc1ccc(O)c(C(C)(C)C)c1 [Butylated hydroxyanisole] | non-reactive | – |
| Cc1cc(C(C)(C)C)c(O)c(C(C)(C)C)c1 [Butylated hydroxytoluene] | non-reactive | – |
| ClC(Cl)Cl [Chloroform] | – | result in the GSH screen (in words) [2]: non-reactive |
| O=C(CCCN1CCC(O)(c2ccc(Cl)cc2)CC1)c1ccc(F)cc1 [Haloperidol] | non-reactive | – |
| O=C1NC(=O)C(c2ccccc2)(c2ccccc2)N1 [Phenytoin] | non-reactive | – |
| CC/C(=C(\c1ccccc1)c1ccc(OCCN(C)C)cc1)c1ccccc1 [Tamoxifen] | non-reactive | – |
| Cc1ccccc1 [Toluene] | non-reactive | – |
| C/C=C/C=O [trans Crotonaldehyde] | reactive | potential reactivity using the GSH reactivity screen [2, 5]: R |

Now from value to compound, other results behind:

| result in the GSH screen (in words) [2, 4] | SMILES | further results |
| --- | --- | --- |
| reactive | O=[N+]([O-])c1csc(Br)n1 [2-Bromo-4-nitrothiazole] | potential reactivity using the GSH reactivity screen [2, 5]: R |
| non-reactive | Nc1ccc(Cl)c([N+](=O)[O-])c1 [4-chloro-3-nitroaniline] | – |
| non-reactive | COc1ccc(Cl)c([N+](=O)[O-])c1 [4-chloro-3-nitroanisole] | – |
| non-reactive | N#Cc1ccc(Cl)c([N+](=O)[O-])c1 [4-chloro-3-nitrobenzonitrile] | – |
| non-reactive | O=C(O)Cc1ccccc1Nc1c(Cl)cccc1Cl [Diclofenac] | – |
| reactive | O=C1C=C(c2ccccc2)C(=O)N1 [Phenylmaleimide] | potential reactivity using the GSH reactivity screen [2, 5]: R |
| non-reactive | CC(=O)Nc1ccc(O)cc1 [acetaminophen] | – |
